Test results reported in US11053213B2, “Pharmaceutical compounds” (ALMAC DISCOVERY LIMITED, priority 2016, dated 2021).

Assays:
[1] = system: panel of DUBs (24 USPs and 19 other DUBs); assay: Selectivity profile against a panel of DUBs (Ub-Rh110 substrate, Ubiquigent); type: biochemical; settings: fixed concentration of 100 μM
Protocol: FIG. 1 Overall selectivity profile of Example 124 against a panel of DUBs. Included in this screen were 24 USPs and 19 other DUBs (as indicated). Example 124 was screened at a fixed concentration of 100 μM using the Ub-Rh110 substrate (Ubiquigent). Residual activity is shown on the y-axis normalised to the no compound (DMSO) control.

[2] = biological target: USP19 (Homo sapiens (Human), UniProt O94966); assay: USP19 activity assay (fluorescence polarisation, Ubiquitin-Lys-TAMRA substrate); type: biochemical; settings: full-length USP19 2.5 nM, 30 min pre-incubation, Ub substrate 500 nM; average of at least two duplicate experiments
Chain of USP19 (O94966 whole entry): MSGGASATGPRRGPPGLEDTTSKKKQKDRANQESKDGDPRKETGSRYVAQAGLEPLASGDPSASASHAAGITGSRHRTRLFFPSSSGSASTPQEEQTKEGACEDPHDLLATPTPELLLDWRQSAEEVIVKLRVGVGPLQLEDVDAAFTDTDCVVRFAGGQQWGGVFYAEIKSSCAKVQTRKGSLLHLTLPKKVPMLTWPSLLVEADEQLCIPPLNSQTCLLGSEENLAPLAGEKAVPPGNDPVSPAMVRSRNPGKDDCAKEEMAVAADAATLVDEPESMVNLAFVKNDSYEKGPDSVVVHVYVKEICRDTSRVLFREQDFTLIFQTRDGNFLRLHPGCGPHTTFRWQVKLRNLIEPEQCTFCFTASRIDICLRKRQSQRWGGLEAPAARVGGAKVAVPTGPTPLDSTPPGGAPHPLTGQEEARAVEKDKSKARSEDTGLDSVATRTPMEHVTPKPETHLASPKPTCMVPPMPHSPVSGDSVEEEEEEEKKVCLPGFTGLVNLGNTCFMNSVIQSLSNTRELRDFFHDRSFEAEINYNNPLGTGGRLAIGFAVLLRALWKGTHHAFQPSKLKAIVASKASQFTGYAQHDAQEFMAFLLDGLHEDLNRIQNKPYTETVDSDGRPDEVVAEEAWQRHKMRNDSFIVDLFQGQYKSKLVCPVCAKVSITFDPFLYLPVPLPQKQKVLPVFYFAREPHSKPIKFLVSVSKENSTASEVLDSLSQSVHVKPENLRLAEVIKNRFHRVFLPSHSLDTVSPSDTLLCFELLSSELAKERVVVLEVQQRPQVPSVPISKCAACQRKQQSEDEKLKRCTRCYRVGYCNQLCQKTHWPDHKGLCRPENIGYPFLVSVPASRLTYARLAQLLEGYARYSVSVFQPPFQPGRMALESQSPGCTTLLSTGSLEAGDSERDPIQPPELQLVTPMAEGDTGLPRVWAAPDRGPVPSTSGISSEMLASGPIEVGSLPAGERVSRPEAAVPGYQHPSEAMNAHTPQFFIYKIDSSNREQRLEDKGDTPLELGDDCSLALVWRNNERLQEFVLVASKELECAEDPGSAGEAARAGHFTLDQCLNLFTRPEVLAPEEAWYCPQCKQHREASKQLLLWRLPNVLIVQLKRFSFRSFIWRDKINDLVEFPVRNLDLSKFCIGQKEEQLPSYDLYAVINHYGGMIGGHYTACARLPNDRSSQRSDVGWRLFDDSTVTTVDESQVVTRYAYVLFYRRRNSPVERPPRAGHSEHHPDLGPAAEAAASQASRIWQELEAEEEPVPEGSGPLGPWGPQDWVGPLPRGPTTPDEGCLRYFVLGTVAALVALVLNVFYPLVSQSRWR

SMILES	Overall selectivity profile (residual activity normalised to DMSO control) [1]	IC50 [2] [nM]
C[C@H](CC1CCCCC1)C(=O)N1CC[C@@](O)(Cn2cc(C(=O)N3CCNCC3)c(-c3ccccc3)cc2=O)C(C)(C)C1 [Example 124, 1-(((S)-1-((R)-3-Cyclohexyl-2-methylpropanoyl)-4-hydroxy-3,3-dimethylpiperidin-4-yl)methyl)-4-phenyl-5-(piperazine-1-carbonyl)pyridin-2(1H)-one]	selectivity is demonstrated	< 500
C[C@H](CC1CCCCC1)C(=O)N1CC[C@@](O)(Cn2cc(C(=O)O)c(-c3ccccc3)cc2=O)C2(CCCC2)C1 [Example 253, 1-(((S)-7-((R)-3-Cyclohexyl-2-methylpropanoyl)-10-hydroxy-7-azaspiro[4.5]decan-10-yl)methyl)-6-oxo-4-phenyl-1,6-dihydropyridine-3-carboxylic acid]		< 500
